In patent publication US9221862B2, “Erythromycin ethylsuccinate crystalline hydrate, preparation and uses thereof” (priority 2011, dated 2015):

Assay: Hygroscopicity test according to CP2005 (RH 70%, 25° C.)
Format: physicochemical
Details: sampling time 48 h, 5 grams of sample
Protocol: The erythromycin ethylsuccinate crystalline hydrate according to the present invention was stable during storage. The above sample was sealed in vials and subjected to accelerated stability test at 30° C. using HPLC (C18 reverse phase column, 4.6×250 mm, 5 μm), mobile phase: 10 mmol/L sodium dodecyl sulfate solution containing 0.1% triethylamine (pH adjusted to 3.4 with phosphoric acid)—acetonitrile (55:45), detection wavelength was 205 nm, and the flow rate is 1.0 ml/min, and the change of relevant substances and content was detected. […] According to CP2005, 5 grams of the sample of the present invention was, at 25° C., placed in a relative humidity of 70% in the test for hygroscopicity. It is surprising that erythromycin ethylsuccinate hydrate leads to less hygroscopic weight gain. […] In addition, the deliquescence of anhydride makes it necessary to isolate from air during processing to prevent adhesions, while the hydrate has good sliding properties, thereby improving the operability of the formulation.

Substance | hygroscopic weight gain %, compared to 0 h
Erythromycin Ethylsuccinate 0.5 H2O Hydrate | 0.2%
Erythromycin Ethylsuccinate 0.25 H2O Hydrate | 0.59%
